# Measurements: article PMC6943664 (Molecules, 2019)
# Values joined by “and” are separate entries in the source; they are usually repeats but may differ in a detail not shown here. Equal values may be shown once. Where a name gives a salt, the structure may show the parent alone. Read-outs that look alike come from different tables or passages of the source.
# How the values were obtained:
# human recombinant MAO B = molecular target: T1, human recombinant MAO B (Homo sapiens, UniProt P27338); test: Human recombinant MAO B inhibition (kynuramine fluorescence); assay type: biochemical; details: mean ±SEM of three independent experiments
# T1 construct: purchased Sigma Aldrich, Milan, Italy
# T1 sequence (P27338 1-520): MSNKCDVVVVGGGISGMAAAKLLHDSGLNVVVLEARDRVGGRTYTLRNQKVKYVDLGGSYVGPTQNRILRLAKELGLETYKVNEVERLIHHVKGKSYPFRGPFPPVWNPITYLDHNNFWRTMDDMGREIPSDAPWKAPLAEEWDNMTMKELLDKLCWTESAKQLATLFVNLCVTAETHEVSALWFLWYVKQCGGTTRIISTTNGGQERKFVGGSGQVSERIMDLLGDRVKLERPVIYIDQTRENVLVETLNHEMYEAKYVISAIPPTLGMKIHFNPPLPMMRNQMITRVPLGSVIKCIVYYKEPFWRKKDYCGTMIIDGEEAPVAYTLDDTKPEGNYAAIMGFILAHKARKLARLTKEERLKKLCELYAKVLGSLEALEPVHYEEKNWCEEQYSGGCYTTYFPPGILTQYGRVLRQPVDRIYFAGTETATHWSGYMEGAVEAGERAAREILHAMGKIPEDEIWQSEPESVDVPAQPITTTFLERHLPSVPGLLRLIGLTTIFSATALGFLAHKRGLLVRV
# Method: (§1) In vitro enzymatic screening toward ChEs was carried out according to the known Ellman’s protocol, by using eeAChE and esBChE as highly homologous and cheaper surrogates for human enzymes. The enzyme inhibition assays on human MAOs were performed by applying already reported methods.
# (§2) All enzymes and reagents were purchased from Sigma Aldrich, Milan, Italy. Inhibition of human recombinant MAO A and B was assayed by monitoring the fluorescence of 4-hydroxyquinoline produced from the oxidation of substrate kynuramine, following a previously published method. Acetylcholinesterase from electric eel and butyrylcholinesterase from equine serum were used in the Ellman’s spectrophotometric method as already described. In all cases, a 96-well plate procedure was used with an Infinite M1000 Pro plate reader (Tecan, Cernusco sul Naviglio, Italy). Inhibition values were determined as IC50 values by statistical analysis using Prism (GraphPad Prism version 5.00 for Windows, GraphPad Software, San Diego, CA, USA).
# human recombinant MAO A = molecular target: T2, human recombinant MAO A (Homo sapiens, UniProt P21397); test: biochemical; details: for inhibition at 10 µM: read-out: MAO A % inhibition at 10 μM, mean ±SEM of three
# T2 construct: purchased Sigma Aldrich, Milan, Italy
# T2 sequence (P21397 1-527): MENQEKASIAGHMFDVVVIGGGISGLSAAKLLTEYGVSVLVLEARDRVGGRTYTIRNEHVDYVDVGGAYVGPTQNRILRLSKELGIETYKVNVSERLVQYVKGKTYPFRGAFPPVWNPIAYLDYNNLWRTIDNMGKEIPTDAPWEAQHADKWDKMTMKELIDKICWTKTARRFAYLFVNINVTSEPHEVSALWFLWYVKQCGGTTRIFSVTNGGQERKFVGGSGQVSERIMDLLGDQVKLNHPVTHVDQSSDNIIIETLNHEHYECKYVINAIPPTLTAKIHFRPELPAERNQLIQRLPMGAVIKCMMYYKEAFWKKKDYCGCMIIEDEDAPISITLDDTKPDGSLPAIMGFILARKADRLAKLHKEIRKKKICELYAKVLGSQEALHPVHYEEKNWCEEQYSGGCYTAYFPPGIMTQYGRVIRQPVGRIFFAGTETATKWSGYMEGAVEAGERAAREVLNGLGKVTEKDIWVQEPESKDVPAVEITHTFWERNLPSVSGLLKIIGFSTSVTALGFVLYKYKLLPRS
# Method: as §1, §2
# [1] = molecular target: T3, Acetylcholinesterase from electric eel (Electrophorus electricus, UniProt O42275); test: biochemical; assay type: biochemical; details: for IC50: AChE from electric eel, mean ±SEM of three; for inhibition at 10 µM: read-out: AChE % inhibition at 10 μM
# T3 construct: purchased Sigma Aldrich, Milan, Italy
# Method: as §1, §2
# [2] = molecular target: T4, butyrylcholinesterase from equine serum (Equus caballus, UniProt P81908); test: biochemical; assay type: biochemical; details: for inhibition at 10 µM: read-out: BChE % inhibition at 10 μM; for IC50: BChE from equine serum, mean ±SEM of three
# T4 construct: butyrylcholinesterase from equine serum; purchased Sigma Aldrich, Milan, Italy; host or cells: equine serum
# Method: as §1, §2
# [3] = human recombinant MAO, read-out: MAO B IC50
# [4] = human recombinant MAO, mean ±SEM of three independent experiments, read-out: MAO A IC50
# [5] = MAO B IC50, human recombinant MAO
# T3 sequence (O42275 24-633): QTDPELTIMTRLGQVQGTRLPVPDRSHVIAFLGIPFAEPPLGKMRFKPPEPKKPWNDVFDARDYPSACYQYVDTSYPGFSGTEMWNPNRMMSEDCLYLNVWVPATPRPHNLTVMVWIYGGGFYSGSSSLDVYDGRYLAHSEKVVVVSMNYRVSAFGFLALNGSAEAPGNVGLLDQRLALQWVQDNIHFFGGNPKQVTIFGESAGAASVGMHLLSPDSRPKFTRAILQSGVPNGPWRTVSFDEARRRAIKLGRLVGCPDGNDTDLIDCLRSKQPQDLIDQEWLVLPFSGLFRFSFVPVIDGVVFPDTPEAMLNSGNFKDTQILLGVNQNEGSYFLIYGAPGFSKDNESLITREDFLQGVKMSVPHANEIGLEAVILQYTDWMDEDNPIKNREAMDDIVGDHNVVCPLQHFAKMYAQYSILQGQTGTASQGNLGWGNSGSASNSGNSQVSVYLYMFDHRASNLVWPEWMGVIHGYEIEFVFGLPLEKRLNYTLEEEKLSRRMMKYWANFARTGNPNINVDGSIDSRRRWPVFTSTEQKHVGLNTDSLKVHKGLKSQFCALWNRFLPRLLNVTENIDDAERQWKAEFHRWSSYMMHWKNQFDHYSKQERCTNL
# T4 sequence (P81908 whole entry): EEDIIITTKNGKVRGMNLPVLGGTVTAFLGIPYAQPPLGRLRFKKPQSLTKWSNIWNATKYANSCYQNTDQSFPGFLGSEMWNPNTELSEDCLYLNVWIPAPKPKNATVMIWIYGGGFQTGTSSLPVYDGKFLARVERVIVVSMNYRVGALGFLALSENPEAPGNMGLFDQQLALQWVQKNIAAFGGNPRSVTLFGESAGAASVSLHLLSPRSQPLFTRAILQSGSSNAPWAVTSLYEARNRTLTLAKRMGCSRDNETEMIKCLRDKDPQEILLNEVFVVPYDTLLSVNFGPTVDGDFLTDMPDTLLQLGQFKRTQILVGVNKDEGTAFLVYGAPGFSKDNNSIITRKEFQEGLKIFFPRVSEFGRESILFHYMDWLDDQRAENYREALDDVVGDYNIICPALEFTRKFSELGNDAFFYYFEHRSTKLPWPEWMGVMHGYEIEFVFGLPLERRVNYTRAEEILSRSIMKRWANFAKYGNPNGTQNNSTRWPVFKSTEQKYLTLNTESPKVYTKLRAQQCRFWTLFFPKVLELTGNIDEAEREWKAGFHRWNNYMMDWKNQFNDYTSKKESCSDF
SMILES,IC50 (human recombinant MAO B; [3]),IC50 (human recombinant MAO A; [4]) [nM],IC50 [1] [µM],inhibition at 10 µM [2] [%],inhibition at 10 µM (human recombinant MAO A; human recombinant MAO) [%],AChE/MAO B IC50 ratio ([1]; eeAChE vs human MAO B),IC50 [2] [µM],BChE/MAO B IC50 ratio ([2]; esBChE vs human MAO B),IC50 (human recombinant MAO B; [5]) [nM],IC50 (human recombinant MAO A) [nM],inhibition at 10 µM [1] [%]
"CNCc1cc(=O)oc2cc(OCc3cc(OC)cc(OC)c3)ccc12 [compound 5, 7-[(3,5-Dimethoxybenzyl)oxy]-4-[(methylamino)methyl]-2H-chromen-2-one]",67 ± 5 nM,1000 ± 100,11 ± 2,20 ± 4,–,–,–,–,–,–,–
"CN1CCN(Cc2cc(=O)oc3cc(OCc4cccc(Cl)c4)ccc23)CC1 [compound 16, 7-[(3-Chlorobenzyl)oxy]-4-[(4-methylpiperazin-1-yl)methyl]-2H-chromen-2-one]",270 nM and 273 nM,–,3.1 ± 0.6,–,32 ± 5,11,2.3 ± 0.9,9,–,–,–
"CN(C)C(=O)CNCc1cc(=O)oc2cc(OCc3cccc(Cl)c3)ccc12 [compound 26, N^2-({7-[(3-Chlorobenzyl)oxy]-2-oxo-2H-chromen-4-yl}methyl)-N^1,N^1-dimethylglycinamide]",30 ± 1 nM,2500 ± 500,4.3 ± 0.6,34 ± 2,–,–,–,–,–,–,–
"CNCc1cc(=O)oc2c(C)c(OCc3cccc(Cl)c3)ccc12 [compound 10, 7-[(3-Chlorobenzyl)oxy]-8-methyl-4-[(methylamino)methyl]-2H-chromen-2-one]",170 ± 10 nM,1000 ± 100,7.2 ± 0.6,46 ± 2,–,–,–,–,–,–,–
"C#CCN(C)Cc1cc(=O)oc2cc(OCc3cccc(Cl)c3)ccc12 [compound 23, 7-[(3-Chlorobenzyl)oxy]-4-{[methyl(prop-2-yn-1-yl)amino]methyl}-2H-chromen-2-one hydrochloride]",–,–,5.6 ± 0.7,28 ± 1,–,–,–,–,84 ± 2,1700 ± 100,–
"O=c1cc(CNCc2ccccc2)c2ccc(OCc3cccc(Cl)c3)cc2o1 [compound 13, 4-[(benzylamino)methyl]-7-[(3-chlorobenzyl)oxy]-2H-chromen-2-one]",103 ± 1 nM,–,17 ± 1,–,24 ± 3,–,3.4 ± 1.3,–,–,–,–
"O=c1cc(CN2CCCC2)c2ccc(OCc3cccc(Cl)c3)cc2o1 [compound 15, 7-[(3-chlorobenzyl)oxy]-4-(pyrrolidin-1-ylmethyl)-2H-chromen-2-one]",152 ± 20 nM,1120 ± 10,6.6 ± 0.9,14 ± 2,–,–,–,–,–,–,–
"C#CCNCc1cc(=O)oc2cc(OCc3cccc(Cl)c3)ccc12 [compound 22, 7-[(3-Chlorobenzyl)oxy]-4-[(prop-2-yn-1-ylamino)methyl]-2H-chromen-2-one]",4.1 ± 1.1 nM,1100 ± 100,2.1 ± 0.2,33 ± 6,–,–,–,–,–,–,–
"CNCc1cc(=O)oc2cc(OCc3cccc(Cl)c3)c(Cl)cc12 [compound 12, 6-Chloro-7-[(3-chlorobenzyl)oxy]-4-[(methylamino)methyl]-2H-chromen-2-one]",1000 ± 100 nM,–,7.9 ± 0.4,27 ± 2,48 ± 1,–,–,–,–,–,–
"CNC(=O)CNCc1cc(=O)oc2cc(OCc3cccc(Cl)c3)ccc12 [compound 25, N^2-({7-[(3-Chlorobenzyl)oxy]-2-oxo-2H-chromen-4-yl}methyl)-N^1-methylglycinamide]",1.1 ± 0.3 nM,2600 ± 100,5.3 ± 1.4,< 5,–,–,–,–,–,–,–
"CCCNCc1cc(=O)oc2cc(OCc3cccc(Cl)c3)ccc12 [compound 20, 7-[(3-chlorobenzyl)oxy]-4-[(propylamino)methyl]-2H-chromen-2-one]",9.4 ± 3.5 nM,–,4.9 ± 1.4,–,48 ± 1,–,3.6 ± 0.8,–,–,–,–
"CNCc1cc(=O)oc2cc(OCc3cccc(Cl)c3)c(C)cc12 [compound 11, 7-[(3-Chlorobenzyl)oxy]-6-methyl-4-[(methylamino)methyl]-2H-chromen-2-one hydrochloride]",–,–,–,48.1 ± 0.6,–,–,–,–,68 ± 2,580 ± 30,47.1 ± 0.3
"CCCCNCc1cc(=O)oc2cc(OCc3cccc(Cl)c3)ccc12 [compound 21, 4-[(butylamino)methyl]-7-[(3-chlorobenzyl)oxy]-2H-chromen-2-one]",164 ± 2 nM,–,–,–,41 ± 3,–,4.8 ± 0.3,–,–,–,39 ± 1
"CNCc1cc(=O)oc2cc(OCc3cccc(N(C)C)c3)ccc12 [compound 4, 7-{[3-(Dimethylamino)benzyl]oxy}-4-[(methylamino)methyl]-2H-chromen-2-one]",570 ± 50 nM,–,6 ± 1.5,34 ± 5,49 ± 1,–,–,–,–,–,–
"CN(C)Cc1cc(=O)oc2cc(OCc3cccc(Cl)c3)ccc12 [compound 19, 7-[(3-chlorobenzyl)oxy]-4-[(dimethylamino)methyl]-2H-chromen-2-one]",213 ± 2 nM,9200 ± 700,8.3 ± 2,–,–,–,7 ± 1.1,–,–,–,–
"COc1cc(COc2ccc3c(CNCC(N)=O)cc(=O)oc3c2)cc(OC)c1 [compound 27, N^2-({7-[(3,5-dimethoxybenzyl)oxy]-2-oxo-2H-chromen-4-yl}methyl)glycinamide]",13 ± 1 nM,5900 ± 500,4.4 ± 0.8,41 ± 2,–,–,–,–,–,–,–
"CN(Cc1ccccc1)Cc1cc(=O)oc2cc(OCc3cccc(Cl)c3)ccc12 [compound 14, 4-{[benzyl(methyl)amino]methyl}-7-[(3-chlorobenzyl)oxy]-2H-chromen-2-one]",332 ± 26 nM,–,16 ± 1,–,28 ± 1,–,6.3 ± 0.3,–,–,–,–
"CNCc1cc(=O)oc2cc(OCc3ccc4c(c3)OCO4)ccc12 [compound 6, 7-(1,3-benzodioxol-5-ylmethoxy)-4-[(methylamino)methyl]-2H-chromen-2-one]",7.5 ± 0.1 nM,1200 ± 100,8.5 ± 1.8,–,–,–,3.4 ± 2.1,–,–,–,–
"CNCc1cc(=O)oc2cc(OCc3cccc(F)c3)ccc12 [compound 9, 7-[(3-fluorobenzyl)oxy]-4-[(methylamino)methyl]-2H-chromen-2-one]",1.3 ± 0.1 nM,1740 ± 40,2.7 ± 1,–,–,–,4.8 ± 0.3,–,–,–,–
"O=c1cc(CN2CCOCC2)c2ccc(OCc3cccc(Cl)c3)cc2o1 [compound 17, 7-[(3-chlorobenzyl)oxy]-4-(morpholin-4-ylmethyl)-2H-chromen-2-one]",172 ± 1 nM,–,6.6 ± 1.1,46 ± 2,32 ± 3,–,–,–,–,–,–
"CNCc1cc(=O)oc2cc(OCc3ccccc3)ccc12 [compound 7, 7-(benzyloxy)-4-[(methylamino)methyl]-2H-chromen-2-one]",2.1 ± 0.2 nM,530 ± 10,–,17 ± 1,–,–,–,–,–,–,26 ± 5
"NCc1cc(=O)oc2cc(OCc3cccc(Cl)c3)ccc12 [compound 18, 4-(aminomethyl)-7-[(3-chlorobenzyl)oxy]-2H-chromen-2-one]",66 ± 15 nM,–,17 ± 4,20 ± 7,46 ± 3,–,–,–,–,–,–
